According to patent US8530447B2, “Dietary fiber formulation and method of administration” (Nestec S.A., priority 2005, dated 2013):

Tested on: human fecal bacteria
Assay: Measure of prebiotic effect (MPE), stirred pH-controlled batch culture fermentations
Type: cell-based
Method: Quantitative in vitro methods are known for measuring the prebiotic effect of a fiber. The measurable effect a fiber has on the growth of major bacterial species in the human gut, bifidobacteria and lactobacilli in particular, is the measure of the prebiotic effect (MPE). MPE has three components:
1. the rate fiber is fermented;
2. the changes in bacterial populations; and
3. the production of SCFA.
The rate of fiber fermentation is determined by the change in the concentration of fiber over time. Thus, the quicker the fiber concentration decreases, the faster the rate of fermentation by bacteria. Changes in bacterial populations are measured by the “prebiotic index,” which considers increases in the growth rate of bifidobacteria, lactobacilli, and eubacteria as positive effects and increases in bacteriodes, clostridia, Escherichia coli, and sulphate-reducing bacteria as negative effects. Different fibers support the growth of distinct bacteria and therefore yield varying patterns and/or amounts of SCFA. However, the prebiotic effect is usually associated with lactic acid-producing bacteria, bifidobacteria and lactobacilli being principle lactic acid producers. Therefore, the ratio of lactic acid production relative to the total SCFA production provides a qualitative as well as quantitative assessment of the fibers being examined. The MPE provides a quantitative analysis of the prebiotic potential of a fiber and provides further support for the benefits of specific fibers. Therefore, the MPE is a useful tool in identifying the types and specific amounts of fiber that promote optimal digestive health and prevent or treat intestinal diseases.
Each value is based on stirred, pH-controlled batch culture fermentations using 0.25%, 0.5%, and 1.0% (w/v) substrates in the presence of human fecal bacteria.

## OC[C@H]1O[C@@](CO)(O[C@H]2O[C@H](CO)[C@@H](O)[C@H](O)[C@H]2O)[C@@H](O)[C@@H]1O [Sucrose]
0.25% (w/v) substrate
  MPE: −0.3
0.5% (w/v) substrate
  MPE: −0.3
1% (w/v) substrate
  MPE: −0.6
